Experiment: Intrauterine injection of pure N2O gas in anaesthetized pigs, N2O detected in expired breath
Format: in vivo
Conditions: anaesthetized pig
Procedure: Pure nitrous oxide (N2O) gas was injected into the uterine cavities of 2 anaesthetized pigs with open uterine tubes and surgically ligated uterine tubes, respectively. Said N2O was detected every second in the expired breath by means of a conventional N2O detector.
The results are shown in FIGS. 1 and 2, where FIG. 1 is a concentration versus time graph and FIG. 2 is a cumulative concentration versus time graph, the upper curves representing closed uterine tubes and the lower curves representing open uterine tubes.
Furthermore, there was a clear difference between the two curves versus time which enables a monitoring of fallopian tube abnormalities as claimed by the present invention.

time to maximum concentration in the exhaled air (open uterine tubes, intrauterine injection of pure N2O gas): approximately 2 minutes | maximum concentration in the exhaled air (open uterine tubes, pure N2O gas injected into uterine cavity, detected every second in expired breath): approximately 40 ppm | maximum concentration in the exhaled air, closed tubes relative to open tubes (higher) (surgically ligated (closed) uterine tubes versus open uterine tubes): approximately 50%
Compound: [N-]=[N+]=O [nitrous oxide]
